# Assay results published in patent publication US12144910B2, “Methods of coating antimicrobial peptides on the biomaterial and the biomaterial coated thereby” (priority 2019, dated 2024).
# Like-named read-outs stand apart in the source and are kept apart here. Non-standard residues stand in square brackets, D forms with d. No end group written: not given here.
# Experiments:
# [1] = test system: E. coli 23502
# Method: (§2) Minimum inhibitory concentration (MIC) and minimum bactericidal concentration (MBC). […] The suspended AMPs were then loaded into wells of 96-well microplates and incubated at 37° C. overnight with gentle agitation at 100 rpm. The absorbance was measured by SpectraMax 190 microplate reader at 600 nm. The remaining cfu in the mixture was counted after plating on agar plate. Minimum inhibitory concentration (MIC) was defined as the lowest AMP concentration to keep the solution with the same absorbance as that of culture medium without bacteria. […] Alternatively, the MIC of coated AMPs was also determined. […] The free form AMPs as well as surfactant were dissolved in 200 μl sterile media (cell culture medium or human urine) and used as a control for quantitation. The potency of antimicrobial activity was expressed as the dilution folds to reach the MIC, in which no bacteria grow in the medium. At least three independent experiments were performed to determine the value.
# [2] = test system: S. aureus
# Method: as §2
# [3] = test system: E. coli ATCC 23502; assay: Potency of antimicrobial activity as dilution folds to reach the MIC; type: cell-based; settings: for Potency (x) MIC to E. coli, Serum / Potency (x) MIC to E. coli, Urine: dilution fold, free form, 1× = 8 μg AMP; for Potency (x) MIC to E. coli, Serum: 16 μg PXB and/or 25 μg SDS in 200 μl serum; for Potency (x) MIC to E. coli, Urine: 16 μg PXB and/or 25 μg SDS in 200 μl urine
# Method: Minimum inhibitory concentration (MIC) and minimum bactericidal concentration (MBC). […] Alternatively, the MIC of coated AMPs was also determined. […] The urine and serum were changed daily. Two μl of the incubation urine or serum being replaced (containing released/free SAAP159+PXB) or its dilutions were dotted onto the top layer of the microbe-containing agar plates and incubated at 37° C. overnight, following which the assessment of formation of growth inhibition zone was carried out. Defined amounts of mixed antimicrobials were used as a standard for the quantitation of the released antimicrobials. The amount of antimicrobial mixture which was able to form visible inhibition zone on the agar plate is defined as one unit of antimicrobial activity. […] The absorbance at 600 nm was then determined by SpectraMax 190 microplate reader. Minimal inhibitory concentration (MIC), which is defined as the concentration of (diluted) sample serum or urine which is able to keep the absorbance of the bacteria-containing media no different to that of media only, was determined. The potency of antimicrobial activity, which is defined as the dilution fold of antimicrobial-containing urine or serum that achieves MIC, was also determined.
# [4] = test system: mouse red blood cells; assay: Hemolytic assay; settings: dilution fold; free form, 1× = 8 μg AMP, 16 μg PXB and/or 25 μg SDS in 200 μl
# Method: The blood cells were pelleted and rinsed three times with 10% FBS in RPMI1640, and re-suspended in the same buffer. The erythrocytes (1.5×10^7 cells) were then added to the solution containing free dual AMP/surfactant or overnight released components from silicone discs in 200 μl and incubation at 37° C. for one hr. The supernatants (150 μl) after centrifugation were transferred to 96-well plate for the measurement of the absorbance of released hemoglobin by SpectraMax 190 microplate reader (Molecular Devices, CA, USA) at 414 nm. Percent hemolysis was calculated using the following formula: % hemolysis=[(A414sample−A414medium)/(A4140.1% Triton-X 100−A414medium)]. Zero and 100% hemolysis were determined in medium and 0.1% Triton-X 100, respectively.
# [5] = test system: Human bladder carcinoma cell line (NTUB1); assay: Cytotoxicity assay (WST-1); settings: for Potency (x) Cytotoxicity to NTUB1 IC50: dilution fold, free form, 1× = 8 μg AMP, 16 μg PXB and/or 25 μg SDS in 200 μl
# Method: NTUB1 cells were maintained at 37° C. in a humidified incubator under 5% CO2 atmosphere in RPMI1640 containing 10% FBS, 100 U/ml penicillin and 100 μg/ml streptomycin. The NTUB1 cells were seeded in the respective wells of a 96-well plate at a density of 1.5×10^4 cells/1000 for 24 hr. The cells were further incubated in 2000 free antimicrobial/surfactant or components released from silicone disc after overnight incubation. After 20 hr incubation, 900 of fresh culture medium and 100 of WST-1 agent (Roche, Basel, Switzerland) were added to the drained wells and incubated for two 2 hr before measuring the absorbance by SpectraMax 190 microplate reader at 450 nm. Percent of cytotoxicity was determined using the following formula: % cytotoxicity=[(A450sample−A450positive control)/(A450negative control−A450positive control)]. Positive control was NTUB1 cells only, whereas negative control was medium without cells.
# [6] = type: physicochemical; set-up: time stable in human urine: unit not given here; settings: for time stable in human urine: coated onto the microplate by SDS, examined under the microscope; for stability in urine: one-day incubation; for time stable in 10% FBS: single AMP coated by SDBS on polystyrene; for time stable in urine: single AMP coated by SDS (two-step) on polystyrene, SDS-PAGE
# [7] = test system: S. aureus; assay: Inhibition zone assay on agar plate; type: cell-based, Staphylococcus aureus; settings: free AMP, 2 μl dotted on agar plate
# Method: (§1) Inhibition zone. Bacteria were cultured in Luria-Bertani broth and plated on Luria-Bertani agar for E. coli (ATCC 23502) and Pseudomonas aeruginosa (ATCC 27853) at 37° C. Staphylococcus aureus (ATCC 6538P) was cultured and plated in/on tryptic soy broth/agar. Candida albicans (ATCC 14053) were cultured in/on YM broth/agar at 30° C. Five ml of low melting agar (1%) mixed with 100 μl of overnight-cultured bacteria was spread on top of 1% regular agar plate. Two μl of antimicrobial peptides at various concentrations were dotted on the top layer of microbe-containing agar plates and incubated overnight for the development of inhibition zone.
# [8] = test system: P. aeruginosa 27853; assay: Inhibition zone assay on agar plate; type: cell-based, Pseudomonas aeruginosa; settings: free AMP, 2 μl dotted on agar plate
# Method: as §1
# [9] = free AMP, LB, 3.5 × 10^5 cfu/ml
compound,measurement,setting,value
CC[C@H](C)[C@H](NC(=O)[C@H](CCCNC(=N)N)NC(=O)[C@H](CCCNC(=N)N)NC(=O)[C@H](CC(C)C)NC(=O)[C@H](Cc1c[nH]c2ccccc12)NC(=O)[C@H](C)NC(=O)[C@H](CCCCN)NC(=O)[C@@H](NC(=O)[C@H](CCCNC(=N)N)NC(=O)[C@H](CCCNC(=N)N)NC(=O)[C@H](CC(C)C)NC(=O)[C@@H](N)Cc1c[nH]c2ccccc12)[C@@H](C)CC)C(=O)N[C@@H](CCCCN)C(=O)N[C@@H](C)C(=O)O [RRIKA],MBC,[1]; 23502,128 µg/mL
same,MIC,[1]; 23502,128 µg/mL
same,MBC,[2],128 µg/mL
same,MIC,[2],64 µg/mL
"CCCCCCCCCCCCOS(=O)(=O)[O-].[Na+] [SDS, sodium dodecyl sulfate]","Potency (x) MIC to E. coli, Serum",[3],<1 x
same,"Potency (x) MIC to E. coli, Urine",[3],<1 x
same,bactericidal activity against E. coli 23502 in urine or in 10% FBS,"[3]; surfactant alone up to maximal amount (14 μg SDS, 25 μg SDBS) in 200 μl",did not exert bactericidal activity
same,Potency (x) Hemolysis of RBC HC50,[4],1-2 x
same,cytotoxicity toward NTUB1 cells,[5]; 25 μg in 200 μl,99%
same,Potency (x) Cytotoxicity to NTUB1 IC50,[5],1-2 x
same,cytotoxicity toward NTUB1 cells,[5]; half of the total amount (of 25 μg in 200 μl),35%
same,cytotoxicity toward human bladder cells (NTUB1) (in words),[5]; maximal amount that may be coated and released (SDS 14 μg; AMP pairs 12 μg each) in 200 μl,low cytotoxicity
GRFKRFRKKFKKLFKKLSPVIPLLHLG (G[dR][dF][dK][dR][dF][dR][dK][dK][dF][dK][dK][dL][dF][dK][dK][dL][dS][dP][dV][dI][dP][dL][dL][dH][dL]G) [L-BMAP27],time stable in human urine,[6],at least three
GRFKRFRKKFKKLFKKLSPVIPLLHLG-OH (All in D form) (G[dR][dF][dK][dR][dF][dR][dK][dK][dF][dK][dK][dL][dF][dK][dK][dL][dS][dP][dV][dI][dP][dL][dL][dH][dL]G-OH) [D-BMAP27],time stable in human urine,[6],at least three
"H-FIHHIIGGLFSAGKAIHRLIRRRRR-OH [TP4, antimicrobial peptide Piscidins 4]",stability in urine,[6]; coated by SDBS on microplates,stable in urine
same,stability in urine,[6]; coated by SOS or SDSn on microplates,not those coated by SOS or SDSn
same,time stable in human urine,[6],at least three
"H-FIHHIIGGLFSAGKAIHRLIRRRRR-OH [TP4-A12,15I]",time stable in 10% FBS,[6],two
H-RRLIRLILRLLR-NH2 [RR12],time stable in 10% FBS,[6],two
same,antimicrobial activity by inhibition zone (in words),[7],very active
same,MBC,[1]; 23502,4 µg/mL
same,MIC,[1]; 23502,4 µg/mL
same,MBC,[2],4 µg/mL
same,MIC,[2],4 µg/mL
"KWKLFKKIGIGAVLKVLKKG-NH2 [T18,19K]",time stable in urine,[6],6 days
same,time stable in serum,[6]; single AMP coated by SDS on polystyrene,not stable
same,MBC,[1]; [9],64 µg/mL
same,MIC,[1]; [9],64 µg/mL
same,MBC,"[2]; free AMP, TSB, 4 × 10^5 cfu/ml",>512 µg/mL
same,MIC,"[2]; free AMP, TSB, 4 × 10^5 cfu/ml",>512 µg/mL
LKRLYKRVFRLLKRYYRQLRRPVR-OH [SAAP159],time stable in human urine,[6],at least three
same,time stable in urine,[6],12 days
same,MBC,[1]; 23502,64 µg/mL
same,MIC,[1]; 23502,64 µg/mL
same,MBC,[2],>512 µg/mL
same,MIC,[2],512 µg/mL
"Polymyxin B [PXB, reference compound]","Potency (x) MIC to E. coli, Serum",[3],512 x
same,"Potency (x) MIC to E. coli, Urine",[3],128 x
same,Potency (x) Hemolysis of RBC HC50,[4],<1 x
same,Potency (x) Cytotoxicity to NTUB1 IC50,[5],<1 x
RFRRLRKKWRKRLKKI-NH2 [T9W],time stable in urine,[6],6 days
same,antimicrobial activity by inhibition zone (in words),[8],preferentially killed
same,MBC,[1]; 23502,>512 µg/mL
same,MIC,[1]; 23502,>512 µg/mL
same,MBC,[2],>512 µg/mL
same,MIC,[2],>512 µg/mL
RGLRRLGRKIVHVVKKYLPTVLRIIRIA-NH2 [SMAP28-3],time stable in human urine,[6],at least three
RGLRRLGRKIVHVVKKYLPTVLRIIRRL-NH2 [SMAP28-3 + 2],time stable in human urine,[6],at least three
same,time stable in 10% FBS,[6],one
same,MBC,[1]; 23502,8 µg/mL
same,MIC,[1]; 23502,4 µg/mL
same,MBC,[2],32 µg/mL
same,MIC,[2],32 µg/mL
